Results reported in US6551774B1, “Diagnostic methods for conditions associated with elevated cellular levels of telomerase activity” (Board of Regents, The University of Texas System, priority 1992, dated 2003).

What was measured:
[1] = target: T1, human telomerase obtained from the tumor cell line 296 (Homo sapiens, UniProt O14746); experiment: Inhibition of human telomerase from a tumor cell line; assay type: biochemical
T1 construct: human telomerase obtained from the tumor cell line 296; endogenous in cells; host or cells: tumor cell line 296 (so in the source)
T1 sequence (O14746 whole entry): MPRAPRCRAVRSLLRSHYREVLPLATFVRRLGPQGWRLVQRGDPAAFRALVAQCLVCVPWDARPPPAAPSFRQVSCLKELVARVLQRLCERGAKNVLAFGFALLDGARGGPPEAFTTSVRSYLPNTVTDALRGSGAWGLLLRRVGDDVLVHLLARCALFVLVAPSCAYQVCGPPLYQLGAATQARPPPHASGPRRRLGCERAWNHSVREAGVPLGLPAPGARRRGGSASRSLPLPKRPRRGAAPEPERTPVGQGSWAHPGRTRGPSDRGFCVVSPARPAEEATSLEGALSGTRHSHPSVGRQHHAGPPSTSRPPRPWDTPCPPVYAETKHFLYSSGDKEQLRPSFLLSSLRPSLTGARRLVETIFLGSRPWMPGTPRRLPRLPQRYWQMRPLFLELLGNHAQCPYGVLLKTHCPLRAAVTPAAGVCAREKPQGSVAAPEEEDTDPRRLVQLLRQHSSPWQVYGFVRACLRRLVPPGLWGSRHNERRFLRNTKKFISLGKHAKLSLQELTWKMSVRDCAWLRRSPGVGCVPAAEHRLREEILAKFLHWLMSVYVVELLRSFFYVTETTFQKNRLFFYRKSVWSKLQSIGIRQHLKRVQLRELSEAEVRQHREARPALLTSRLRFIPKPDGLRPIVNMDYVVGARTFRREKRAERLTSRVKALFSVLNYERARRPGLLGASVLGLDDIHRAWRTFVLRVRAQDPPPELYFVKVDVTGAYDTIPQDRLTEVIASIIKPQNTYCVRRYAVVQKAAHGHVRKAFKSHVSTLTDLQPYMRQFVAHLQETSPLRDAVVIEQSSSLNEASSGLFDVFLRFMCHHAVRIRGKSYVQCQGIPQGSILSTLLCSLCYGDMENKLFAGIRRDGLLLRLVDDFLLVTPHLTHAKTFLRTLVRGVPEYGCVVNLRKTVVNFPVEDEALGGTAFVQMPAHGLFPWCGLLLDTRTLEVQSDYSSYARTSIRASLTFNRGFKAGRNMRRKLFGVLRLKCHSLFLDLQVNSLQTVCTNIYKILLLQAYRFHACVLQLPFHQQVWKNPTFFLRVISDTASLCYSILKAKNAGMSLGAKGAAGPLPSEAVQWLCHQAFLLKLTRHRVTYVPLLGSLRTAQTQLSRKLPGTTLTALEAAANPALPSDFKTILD
T1 sequence (O60832 whole entry partner): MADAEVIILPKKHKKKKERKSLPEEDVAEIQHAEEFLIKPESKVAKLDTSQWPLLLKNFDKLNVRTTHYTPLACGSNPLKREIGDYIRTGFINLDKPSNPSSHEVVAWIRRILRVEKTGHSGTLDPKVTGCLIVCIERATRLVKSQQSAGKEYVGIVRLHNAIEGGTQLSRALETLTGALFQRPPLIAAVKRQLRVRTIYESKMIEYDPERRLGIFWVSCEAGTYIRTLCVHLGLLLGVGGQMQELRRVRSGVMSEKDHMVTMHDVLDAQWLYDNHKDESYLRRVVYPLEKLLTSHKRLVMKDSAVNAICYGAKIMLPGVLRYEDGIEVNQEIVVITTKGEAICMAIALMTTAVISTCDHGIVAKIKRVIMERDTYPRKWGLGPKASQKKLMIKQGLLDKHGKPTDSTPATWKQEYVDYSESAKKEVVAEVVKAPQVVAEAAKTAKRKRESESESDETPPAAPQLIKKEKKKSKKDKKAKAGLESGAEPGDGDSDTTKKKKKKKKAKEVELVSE
T1 sequence (Q9NPE3 whole entry partner): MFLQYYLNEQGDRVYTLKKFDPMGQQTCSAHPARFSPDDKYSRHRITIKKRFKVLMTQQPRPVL
T1 sequence (Q9NX24 whole entry partner): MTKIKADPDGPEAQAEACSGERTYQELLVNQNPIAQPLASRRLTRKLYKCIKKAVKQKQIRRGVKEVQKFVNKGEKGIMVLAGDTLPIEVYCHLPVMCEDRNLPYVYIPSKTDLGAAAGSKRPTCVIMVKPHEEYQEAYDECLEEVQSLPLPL
T1 sequence (Q9NY12 whole entry partner): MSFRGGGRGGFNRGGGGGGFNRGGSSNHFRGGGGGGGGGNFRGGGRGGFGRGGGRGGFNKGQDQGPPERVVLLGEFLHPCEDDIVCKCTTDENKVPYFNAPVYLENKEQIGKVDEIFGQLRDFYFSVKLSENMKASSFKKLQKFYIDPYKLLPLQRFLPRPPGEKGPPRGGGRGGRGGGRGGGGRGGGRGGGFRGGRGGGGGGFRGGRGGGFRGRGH

Tetrahymena cells [2] = experiment: Growth, morphology and senescence of Tetrahymena mass-transfer cultures with nucleoside analogs; assay type: cell-based, Tetrahymena thermophila; settings: 2% PPYS plus, mass transfer
Procedure: (§1) For analysis of macronuclear DNA from cultures containing the nucleoside analog AZT (Sigma), or controls lacking analog, at various timepoints during vegetative divisions, cells from stationary stock cultures were inoculated into 25 ml thymine-deficient Iso-sensitest broth (‘Isobroth’, Oxoid USA) in 250 ml flasks. Cultures were incubated at 30° C. with shaking (100 rpm) for 48 hours. Cells were counted and plated at 1000 cells/1.5 ml in 24-well plates (Falcon) and grown at 30° C., without shaking, for 48 hours. 5 μl of these log phase cells were used to inoculate 1 ml cultures (Isobroth) containing varied concentrations of nucleoside analog. Thereafter, every 2-4 days cells were transferred, either 5 μl per well, or 1-3 μl using a multi-pronged replicator into fresh 1 ml broth containing AZT. Remaining cells were pelleted and stored at −80° C. until processed for DNA analysis.
(§2) For analysis of macronuclear DNA from vegetative cultures containing the nucleoside analogs Ara-G (Calbiochem), ddG (Calbiochem), or ddI (Calbiochem), or controls lacking analog, stock cultures were grown overnight in 2% PPYS as described. Cells were counted and plated at 100 cells/2 ml in 2% PPYS containing varied amounts of analog, 1% DMSO (Fisher) (as a control for ddG and Ara-G), or 2% PPYS alone. Cells were replica plated into fresh medium every 2-6 days, and remaining cells were pelleted and stored at −80° C. until processed for DNA analysis.
To test whether such a phenotype could be produced by inhibitors of telomerase in Tetrahymena, duplicate log-phase cultures were grown for prolonged periods in the presence of varying concentrations of analogs. The growth and cell morphology of these cultures were monitored, and DNA was isolated at different times for telomere length analysis. […] From growth rate measurements it was calculated that the cells went through 150 to 250 cell generations in the course of this 50 day period.

[3] = test system: lymphoma cell line JY 616; experiment: Growth of cultured JY lymphoma cells with potential telomerase inhibitors; assay type: cell-based, human; settings: 20 μM
Procedure: (§3) The effect of the agents on telomerase activity in intact cells was then studied utilizing the lymphoma cell line JY 616 which were maintained in RPMI 1640 with […] Hepes, 10% FCS, and penicillin/streptomycin (Gibco). The cells were cultured in 6-well plates (Falcon) with 5.0 ML of medium per well in duplicate. Cells were passaged every 7-10 days which corresponded to 5-7 mean population doublings (MPD), and seeded at 3×10^4 cells per well into fresh medium containing analog or control. Cell viability was monitored prior to harvest utilizing trypan blue stain (Gibco) during counting with a hemocytometer. The average ratio of stained: unstained cells (dead:alive) was […]. The intactness of the DNA was measured on a parallel gel by observing its mobility in a gel prior to digestion by a restriction enzyme.

Tetrahymena cells [4] = experiment: Progeny formation (cycloheximide resistance) of Tetrahymena conjugated in the presence of analog; assay type: cell-based, Tetrahymena thermophila; settings: for # CHX-R: number of cycloheximide-resistant wells; for irreversible disruption of macronuclear development: analog present during conjugation
Procedure: For analysis of cycloheximide (CHX) sensitivity of cells conjugated in the presence of analog, 50 ml cultures of each cell type were grown overnight in 2% PPYS, starved in Dryl's for 18 hours, mated (5×10^5 cells/ml) for 6 hours, then analog was added. Cells were allowed to complete mating in the presence of the analog. Twenty-four hours after mixing, cells were diluted in Dryl's solution, counted and plated at 1 cell per well of 96-well plates in 1% PPYS without analog. Cells were grown for 4 days in a humid chamber at 30° C., without shaking. Cells were then replica plated into 1% PPYS plus 15 μg/ml cycloheximide, allowed to grow for four days before scoring, and percent of CHX-resistant wells was calculated. Because generation of progeny expressing the cycloheximide marker requires successful production of a new macronucleus, cells whose macronuclear development was disrupted by the analog are killed in CHX.
This process involves de novo formation of new macronuclear telomeres in the progeny cells. Macronuclear development in ciliated protozoans such as Tetrahymena involves developmentally programmed, site-specific fragmentation of germline chromosomes into linear subchromosomes, whose ends are healed by de novo addition of telomeres. […] Because of the immediate requirement for telomere addition to fragmented DNA, it is possible that the latter process might be more sensitive to telomerase inhibition than telomere maintenance during vegetative growth. To test whether nucleoside analogs cause inhibition of macronuclear development due to a disruption of telomere formation, we mated two strains of Tetrahymena which are sensitive to cycloheximide, but whose progeny after mating are resistant to cycloheximide. Synchronized mated cells were treated with AZT at concentrations ranging from 10 μM to 5 mM for a period beginning just prior to when macronuclear development begins and continuing during macronuclear development (the period 6-24 hours after mating was initiated). […] In attempts to maximize the effect of AZT, cells were either refed at 6 hrs with 2% PPYS or Isobroth, or starved until 24 hrs (the duration of the AZT treatment). Such starvation arrests macronuclear development at an intermediate stage. When refed, macronuclear development would then be forced to proceed in the presence of the AZT. Control, unmated parental cells were also plated and exposed to drug.

Tetrahymena cells [5] = experiment: Single-cell transfer cultures of Tetrahymena with AZT or Ara-G; assay type: cell-based, Tetrahymena thermophila; settings: 10 μM AZT; 10 μM or 1 mM Ara-G; 1 to 10 cells per well
Procedure: For analysis of vegetative growth and macronuclear DNA from single-cell cultures containing the nucleoside analogs AZT or Ara-G, SB210 (VI) cells were grown from stationary stock cultures overnight at 30° C. with shaking (100 rpm) in 50 ml 2% PPYS or Isobroth. Cells were counted and added to the appropriate medium plus analog (Ara-G to 1 mM or DMSO to 1% as control in 2% PPYS; AZT to 10 μm or 1 mM, or no addition as control in Isobroth) and plated in 96-well plates (Falcon), 100 μl per well at a density of 1 cell per well. 5 plates were prepared for each analog or control. Wells were scored for cell growth and plates were replica plated every 1-2 days (Ara-G and DMSO plates) or every 2-4 days (AZT and Isobroth control plates) to maintain approximate inoculation densities of 1-10 cells per well for each passage. Occasionally individual wells were passaged by hand (1 μl inoculated per well using a pipettor) into several blank wells, to expand the number of live wells per plate as single-cell cultures were lost over time due to low probability of being transferred at each passage. After passaging, cells were pooled, pelleted and stored at −80° C. until processed for DNA analysis.
To test whether we had missed such a subpopulation of cells, we carried out the same experiments on vegetatively dividing Tetrahymena cells in the presence and absence of drug, but in these experiments the subculturing was carried out by plating cells at an average of 1 to 10 cells per well in microtiter plate wells in the presence of 10 μM and 1 mM AZT, and 10 μM and 1 mM Ara-G. For each drug, cells were plated out in this manner for 30 consecutive days (90 to 150 cell generations) and 16 consecutive days (50 to 80 cell generations) respectively for the 10 μM and 1 mM drug concentrations. DNA was isolated at intervals from combined samplings of the wells for analysis of telomere length.

[6] = test system: MDA 157 human breast cancer cells; experiment: Proliferation of MDA 157 cancer cells fed oligonucleotides (Example 2); assay type: cell-based
Procedure: Specifically, MDA 157 human breast cancer cells with an immortal phenotype were seeded at 10,000 cells per well in 12 well tissue culture dishes and fed medium only or medium supplemented with GTO-12 (at 1.0 μM, 0.1 μM, and 0.01 μM). […] Cells fed the GTO-12 oligonucleotide, at 1.0 μM, however, ceased to proliferate after less than 10 doubling. […] The lack of effect of the G+C mixture may reflect the CTO-12 oligonucleotide, competing with or base pairing with the GTO-12 oligonucleotide, this preventing its inhibitory effect on the cancer cell telomerase.

[7] = test system: IDH4 immortalized human fibroblast cell line; experiment: IDH4 cells incubated with GTO: population doublings and TRF length (Example 12); assay type: cell-based; settings: for population doublings in 90 days: fed every other day (control 45 PDL)
Procedure: As in Example 2, an immortalized human fibroblast cell line, IDH4, which has very short TRFs, was incubated with GTO oligonucleotide. Referring to FIGS. 15 and 16, cells were incubated in regular culture medium containing serum in the presence of 10 μM, 30 μM and 100 μM GTO. The cells were fed fresh phosphodiester GTO oligonucleotide every other day and subcultured when confluent for a total of 90 days. The cells were still growing in GTO after 90 days at all concentrations used even though they grew more slowly at the higher GTO concentrations and went through fewer population doubling (control, 45 PDL; 10 μM GTO 40 PDL; 30 μM 35 PDL; 100 μM 25 PDL). […] The control and 30 μM GTO were passaged without oligonucleotide addition for an additional 90 days (approximately 35-40 PDL). As is illustrated in FIG. 16, the TRFs slowly shorten.

Tetrahymena cells [8] = experiment: Telomere length in vegetatively grown Tetrahymena by Southern blot; assay type: cell-based, Tetrahymena thermophila; settings: up to 1 mM, 5 days of subculturing (15-20 cell generations), 2% PPYS
Procedure: as §1, §2
For analysis of macronuclear DNA from vegetative cultures containing d4T (Sigma) or control lacking the analog, stock cultures (SB210 VI) were grown overnight in Isobroth as described. Cells were then counted and duplicate cultures inoculated at 500 cells/5 ml Isobroth in 50 ml conical tubes, and grown at 30° C., shaking 80 rpm. 500-2000 cells were transfered to fresh broth every 2-4 days, and the remainder pelleted and stored at −80° C. until processed for DNA analysis.
Restriction digests, agarose gel electrophoresis, transfer of DNA to Nytran filters (Schleicher and Schuell), and hybridization with ^32P-nick-trapplated or random-primed probes were carried out using standard procedures (Maniatis et.al. 1989). Telomere length was analyzed as described previously for Tetrahymena [Larson 50 Cell, 477, 1987].
Telomere lengths in cells grown in the presence of the different analogs were monitored by Southern blot analysis of DNA samples extracted at a series of time points during the subculturings. The telomeres of cells grown vegetatively in 1 and 5 mM AZT in 2% PPYS medium were reproducibly shortened by up to an average of 170 base pairs compared with the control cultures grown in 2% PPYS in the absence of the drug (FIG. 21A and B). This shortening of telomeres occured in a concentration-dependent manner (FIG. 21B), with at least 50% of the maximal shortening effect occurring by 10 μM AZT, the lowest concentration tested.

[9] = test system: lymphoma cell line JY 616; experiment: Telomere length of JY lymphoma cells by Southern blot; assay type: cell-based, human; settings: 10 μM, 9 and 10 weeks
Procedure: The first lane is DNA from the cells at the start of the experiment, the second is the RPMI control, and the third is cells treated with AZT for the times indicated.
Cells were treated over a 10 week period with either 10 μM ddG in 0.01% DMSO or medium with 0.01% DMSO only.
as §3

[10] = 0.01 mM analog (head prints MM), first block for the analog
[11] = 0.01 mM analog, first block for the analog
[12] = 0.1 mM analog (head prints MM), first block for the analog
[13] = 0.1 mM analog, first block for the analog
[14] = 1.0 mM analog (head prints MM), first block for the analog
[15] = 1.0 mM analog, first block for the analog
[16] = 0.001 mM analog (head prints MM), first block for the analog
[17] = 0.001 mM analog, first block for the analog

Row | Compound | inhibition of human telomerase [1] | % CHX-R (Tetrahymena cells [4]; [10]) [%] | # CHX-R (Tetrahymena cells [4]; [11]) | % CHX-R (Tetrahymena cells [4]; [12]) [%] | # CHX-R (Tetrahymena cells [4]; [13]) | % CHX-R (Tetrahymena cells [4]; [14]) [%] | # CHX-R (Tetrahymena cells [4]; [15]) | irreversible disruption of macronuclear development (Tetrahymena cells [4]) | telomere length compared with control cultures (Tetrahymena cells [8]) | % CHX-R (Tetrahymena cells [4]; [16]) [%] | # CHX-R (Tetrahymena cells [4]; [17]) | further results
1 | Nc1nc2c(ncn2[C@@H]2O[C@H](CO)[C@@H](O)[C@@H]2O)c(=O)[nH]1 [Ara-G] | effective inhibitors of human telomerase | 81 | 114 | 80 | 134 | 55 | 89 | little or no irreversible disruption | – | – | – | cell doubling rate, morphology, long term viability (Tetrahymena cells [2]): no effects on cell doubling rate, morphology or long term viability; cell growth [3]: slowed growth; % CHX-R (Tetrahymena cells [4]; 1.0 mM analog (head prints MM), second block for the analog): 59%; # CHX-R (Tetrahymena cells [4]; 1.0 mM analog, second block for the analog): 51; % CHX-R (Tetrahymena cells [4]; 2.0 mM analog (head prints MM), second block for the analog): 43%; # CHX-R (Tetrahymena cells [4]; 2.0 mM analog, second block for the analog): 40; plating efficiency compared with control medium (Tetrahymena cells [5]): no changes in the plating efficiency
2 | 5′-TTAGGGTTAGGG-3′ (listed as DNA, chemistry not given here) [GTO-12, guanidine-rich terminal oligonucleotide-12 bp] | – | – | – | – | – | – | – | – | – | – | – | doublings after which cells ceased to proliferate ([6]; 1.0 μM): less than 10 doubling; proliferation phenotype ([6]; doses of less than 1.0 μM (0.1 μM, 0.01 μM)): continued replicating in an immortal phenotype; TRF length after 90 days ([7]; 10 μM, 30 μM and 100 μM): regained TRF length in a dose dependent manner; population doublings in 90 days ([7]; 10 μM): 40 PDL; population doublings in 90 days ([7]; 30 μM): 35 PDL; population doublings in 90 days ([7]; 100 μM): 25 PDL
3 | O=c1[nH]cnc2c1ncn2[C@H]1CC[C@@H](CO)O1 [ddI] | – | 89 | 85 | 78 | 83 | 91 | 100 | little or no irreversible disruption | no changes in telomere length | 83 | 59 | –
4 | Nc1nc2c(ncn2[C@H]2CC[C@@H](CO)O2)c(=O)[nH]1 [ddG] | effective inhibitors of human telomerase | – | – | 85 | 73 | 77 | 51 | little or no irreversible disruption | no changes in telomere length | 84 | 86 | telomere length compared to the DMSO control [9]: decrease in telomere length
